Test results from patent US20250304537A1 (Repare Therapeutics Inc., priority 2022, published 2025).

Biological target: recombinant human Myt1 (full length PKMYT1) (Homo sapiens (Human), UniProt Q99640)
Assay: Recombinant human Myt1 kinase assay (ADP-Glo)
Assay type: biochemical
Conditions: 10 μM ATP
Experimental: Detection of Myt1 kinase activity utilized a recombinant human Myt1 kinase assay measuring the hydrolysis of ATP using a commercially available ADP-Glo Assay (ADP-Glo™ Kinase Assay from Promega, 10 000 assays, #V9102). Briefly, 5 μL recombinant human Myt1 (full length PKMYT1 recombinant human protein expressed in insect cells from Thermo Fisher #A33387; ˜80% purity) was prepared in reaction buffer (70 mM HEPES, 3 mM MgCl2, 3 mM MnCl2, 50 μg/ml PEG 20000, 3 μM Na-orthovanadate, 1.2 mM DTT) and added to 384 well white polystyrene, flat bottom well, non-treated, microplate (Corning #3572). After this, 5 μL of compounds (diluted in reaction buffer to 0.5% DMSO) was added to the microplate and the plate was spun briefly and incubated at 22° C. for 15 minutes. Ultra-Pure Adenosine Triphosphate (ATP) solution (ADP-Glo kit from Promega) was diluted in reaction buffer and 5 μL was added to the microplate, spun down briefly and incubated for 60 minutes at 30° C. The final Myt1 enzyme concentration was 18 nM and the final ATP concentration was 10 μM. After the 60-minute incubation, 15 μL of ADP-Glo reagent was added and the plate was spun briefly and sealed and incubated in the dark for 40 minutes at 22° C. Following this, 30 μL of kinase detection reagent was added per well and the plate was spun briefly, sealed and incubated for 45-60 minutes at 22° C. in the dark. Luminescence was read using the Envision (250 ms integration). The IC50 and the % max inhibition were calculated for each inhibitor compound tested.

Chain of recombinant human Myt1 (full length PKMYT1) (Q99640 whole entry): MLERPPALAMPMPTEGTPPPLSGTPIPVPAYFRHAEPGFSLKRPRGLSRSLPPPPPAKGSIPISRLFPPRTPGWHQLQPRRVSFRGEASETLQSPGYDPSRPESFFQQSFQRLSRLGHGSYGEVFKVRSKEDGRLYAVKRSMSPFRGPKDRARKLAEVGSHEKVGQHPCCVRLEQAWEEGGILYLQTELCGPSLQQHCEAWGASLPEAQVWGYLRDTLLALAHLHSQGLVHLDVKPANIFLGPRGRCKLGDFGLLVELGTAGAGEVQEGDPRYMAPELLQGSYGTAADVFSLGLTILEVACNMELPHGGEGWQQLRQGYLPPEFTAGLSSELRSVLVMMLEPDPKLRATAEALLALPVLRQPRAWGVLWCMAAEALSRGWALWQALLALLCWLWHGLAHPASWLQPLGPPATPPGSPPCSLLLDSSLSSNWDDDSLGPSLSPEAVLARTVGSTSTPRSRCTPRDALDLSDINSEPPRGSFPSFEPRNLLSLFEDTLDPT

Row | SMILES | IC50
1 | Cc1ccc2[nH]ncc2c1-c1cc(-c2cccc(OCC(F)(F)F)c2)nc(C(N)=O)c1N [Compound 175] | 364 nM
2 | Cc1ccc(O)cc1-c1nc(-c2ccn(C)n2)nc(C(N)=O)c1N [Compound 35] | 167 nM
3 | CCC(Nc1cccc(-c2cc(-c3c(C)ccc4[nH]ncc34)c(N)c(C(N)=O)n2)n1)c1ccccc1 (stereo not shown) [Compound 331, 5-amino-4-(5-methyl-1H-indazol-4-yl)-6′-((1-phenylpropyl)amino)-[2,2′-bipyridine]-6-carboxamide] | 54 nM
4 | Cc1ccc2[nH]ncc2c1-c1nc(-c2cccc(C(F)(F)F)c2)nc(C(N)=O)c1N [Compound 112] | 100 nM
5 | COCC(=O)c1ccccc1-c1nc(C(N)=O)c(N)c(-c2c(C)ccc3[nH]ncc23)n1 [Compound 793] | 266 nM
6 | Cc1ccc2[nH]ncc2c1-c1nc(-c2cccc(Cl)c2N)nc(C(N)=O)c1N [Compound 444] | 43 nM
7 | Cc1ccc2[nH]ncc2c1-c1cc(-c2csc(C(C)(C)O)n2)nc(C(N)=O)c1N [Compound 225] | 161 nM
8 | Cc1ccc(O)cc1-c1nc(-c2ccc(F)c(Cl)c2)nc(C(N)=O)c1N [Compound 28] | 45 nM
9 | Cc1ccc2[nH]ncc2c1-c1nc(-c2ccccc2)nc(C(N)=O)c1Cl [Compound 75, 5-chloro-6-(5-methyl-1H-indazol-4-yl)-2-phenylpyrimidine-4-carboxamide] | > 2000 nM
10 | Cc1ccc2[nH]ncc2c1-c1cc(Nc2ccccc2)nc(C(N)=O)c1N [Compound 335, 3-amino-4-(5-methyl-1H-indazol-4-yl)-6-(phenylamino)picolinamide] | 195 nM
11 | Cc1n[nH]c2cccc(-c3nc(-c4ccccc4)nc(C(N)=O)c3N)c12 [Compound 116] | > 5000 nM
12 | Cc1ccc2[nH]ncc2c1-c1nc(-c2cccc(CN3CCOCC3)c2)nc(C(N)=O)c1N [Compound 283] | 30 nM
13 | Cc1ccc2[nH]ncc2c1-c1nc(-c2ccc(OC3CC3)cc2)nc(C(N)=O)c1N [Compound 127] | 120 nM
14 | Cc1cc(-c2nc(C(N)=O)c(N)c(-c3c(C)ccc4[nH]ncc34)n2)cc(C(F)(F)F)c1 [Compound 144] | 130 nM
15 | Cc1ccc2[nH]ncc2c1-c1nc(-c2cccc(Cl)c2)nc(C(N)=O)c1N [Compound 111] | 44 nM
16 | Cc1ccc2[nH]ncc2c1-c1nc(-c2ccc(C3(C#N)CC3)cc2)nc(C(N)=O)c1N [Compound 125] | 51 nM
17 | Cc1ccc(O)cc1-c1nc(-c2cc(F)cc(C(F)(F)F)c2)nc(C(N)=O)c1N [Compound 32] | 175 nM

Row | SMILES | IC50
18 | COCCOc1cccc(-c2nc(C(N)=O)c(N)c(-c3c(C)ccc4[nH]ncc34)n2)c1 [Compound 286] | 41 nM
19 | Cc1ccc2[nH]ncc2c1-c1cc(-c2ccc(OC3COC3)nc2)nc(C(N)=O)c1N [Compound 201] | 91 nM
20 | Cc1cccc(-c2nc(C(N)=O)c(N)c(-c3cc(O)ccc3C)n2)c1 [Compound 30] | 74 nM
21 | Cc1ccc2[nH]ncc2c1-c1cc(-c2cccc(O[C@@H](C)c3ncccn3)n2)nc(C(N)=O)c1N [Compound 253] | 55 nM
22 | Cc1ccc2[nH]ncc2c1-c1cc(-c2cccc(OC[C@H](N)C(C)C)n2)nc(C(N)=O)c1N (atropisomer, axis not shown) [Compound 345] | 1020 nM
23 | Cc1ccc2[nH]ncc2c1-c1cc(-c2ccnc(N[C@H]3c4ccccc4C[C@@H]3O)n2)nc(C(N)=O)c1N (atropisomer, axis not shown) [Compound 372] | > 2000 nM
24 | Cc1ccc2[nH]ncc2c1-c1nc(-c2ccc(C(=O)O)s2)nc(C(N)=O)c1N [Compound 162] | 198 nM
25 | Cc1ccc2[nH]ncc2c1-c1cc(-c2cn(C)cn2)nc(C(N)=O)c1N [Compound 172] | 53 nM
26 | Cc1ccc2[nH]ncc2c1-c1cc(-c2ccnc(N3Cc4ccccc4C[C@H]3CO)n2)nc(C(N)=O)c1N (atropisomer, axis not shown) [Compound 392] | 461 nM
27 | Cc1ccc(O)c(C)c1-c1cc(-c2cc3ccccc3n2C)nc(C(N)=O)c1N [Compound 46] | 62 nM
28 | Cc1ccc2[nH]ncc2c1-c1nc(-c2cccc(C(=O)O)c2)nc(C(N)=O)c1N [Compound 150] | 1110 nM
29 | Cc1cnc(-c2nc(C(N)=O)c(N)c(-c3cc(O)ccc3C)n2)s1 [Compound 9] | 44 nM
30 | Cc1ccc2[nH]ncc2c1-c1nc(-c2ccnc(N3CCN(C)CC3)c2)nc(C(N)=O)c1N [Compound 154] | 30 nM
31 | Cc1ccc2[nH]ncc2c1-c1cc(-c2ncccn2)nc(C(N)=O)c1N [Compound 219] | 56 nM
32 | Cc1csc(-c2nc(C(N)=O)c(N)c(-c3c(C)ccc4[nH]ncc34)n2)c1 [Compound 148] | 69 nM
33 | Cc1cc(-c2nc(C(N)=O)c(N)c(-c3cc(O)ccc3C)n2)cc(C)n1 [Compound 11] | 54 nM

Now those with a lower IC50, led by results:

Row | IC50 | SMILES
34 | 28 nM | Cc1ccc2[nH]ncc2c1-c1nc(-c2cccc3cc[nH]c23)nc(C(N)=O)c1N [Compound 366]
35 | 26 nM | Cc1ccc2[nH]ncc2c1-c1cc(-c2cccc(OC(C)c3ccccn3)n2)nc(C(N)=O)c1N (stereo not shown) [Compound 252]
36 | 24 nM | Cc1ccc2[nH]ncc2c1-c1cc(-c2ccnc(N3CCCCC3CCO)n2)nc(C(N)=O)c1N (stereo not shown) [Compound 404]
37 | 23 nM | COc1cccc(-c2nc(C(N)=O)c(N)c(-c3c(C)ccc4[nH]ncc34)n2)c1 [Compound 141]
38 | 21 nM | Cc1ccc2[nH]ncc2c1-c1nc(-c2ccc(C#N)s2)nc(C(N)=O)c1N [Compound 158]
39 | 20 nM | Cc1nc(COc2nccc(-c3cc(-c4c(C)ccc5[nH]ncc45)c(N)c(C(N)=O)n3)n2)co1 [Compound 316]
40 | 20 nM | Cc1ccc2[nH]ncc2c1-c1cc(-c2ccnc(N3CCCC3CO)n2)nc(C(N)=O)c1N (stereo not shown) [Compound 373]
41 | 18 nM | Cc1ccc2[nH]ncc2c1-c1nc(-c2cccc3nc[nH]c23)nc(C(N)=O)c1N [Compound 378]
42 | 18 nM | COCc1cccc(-c2nc(C(N)=O)c(N)c(-c3c(C)ccc4[nH]ncc34)n2)c1 [Compound 292]
43 | 18 nM | Cc1ccc2[nH]ncc2c1-c1nc(-c2cccc(C(=O)N3CCOCC3)c2)nc(C(N)=O)c1N [Compound 289]
44 | 14 nM | Cc1ccc2[nH]ncc2c1-c1cc(-c2ccnc(OCCc3cnccn3)n2)nc(C(N)=O)c1N [Compound 310]
45 | 14 nM | Cc1ccc2[nH]ncc2c1-c1nc(-c2cccc3ccsc23)nc(C(N)=O)c1N [Compound 379]
46 | 13 nM | Cc1ccc2[nH]ncc2c1-c1nc(-c2cccc(-n3cccn3)c2)nc(C(N)=O)c1N [Compound 282]
47 | 12 nM | Cc1ccc2[nH]ncc2c1-c1cc(-c2ccnc(OCCc3cccnc3)n2)nc(C(N)=O)c1N [Compound 272]
48 | 9 nM | Cc1ccc2[nH]ncc2c1-c1cc(-c2ccnc(OCCc3nccn3C)n2)nc(C(N)=O)c1N [Compound 264]
49 | 8 nM | Cc1ccc2[nH]ncc2c1-c1cc(-c2cccc(OCc3cncs3)n2)nc(C(N)=O)c1N [Compound 279]
50 | 5 nM | Cc1ccc2[nH]ncc2c1-c1cc(-c2ccnc(O[C@@H](C)c3ncccn3)n2)nc(C(N)=O)c1N (atropisomer, axis not shown) [Compound 357]
51 | 4 nM | Cc1ccc2[nH]ncc2c1-c1nc(-c2ccccc2NC(=O)C(C)C)nc(C(N)=O)c1N [Compound 407]
52 | 3 nM | Cc1ccc2[nH]ncc2c1-c1cc(-c2cccc(OCC3(N)CC3)n2)nc(C(N)=O)c1N (atropisomer, axis not shown) [Compound 382]
